# Laboratory results reported in US7250492B2, “Compositions and methods for inhibition of cancer invasion and angiogenesis” (The Research Foundation at State University of New York, priority 2000, dated 2007).
# Experiments:
# [1] = target: T1, seprase-DPPIV complex (Homo sapiens, UniProt P27487+Q12884); assay: collagen-degrading activity: peptide release from biotinylated type I collagen gel; type: biochemical; conditions: 37° C., 8 h; mAb 5 μg/ml, AEBSF 20 μM, CG1847 50 nM
# T1 construct: The seprase-DPPIV complex was isolated from WI38 RIPA extracts using mAbs D28; endogenous in cells; host or cells: WI38 human fibroblasts (RIPA extract, immuno-isolated on mAb D28 or E3 beads)
# Method: FIG. 9. Collagen-degrading activity of the seprase-DPPIV complex. Collagen-degrading activities of the protease complex and purified DPPIV were determined by the release of peptide fragments from biotinylated type I collagen gel in the presence of these enzymes. The seprase-DPPIV complex was isolated from WI38 RIPA extracts using mAbs D28 (lane marked Ip Seprase) and E3 (lane marked Ip DPPIV) beads, seprase from LOX WGA fraction using mAb D28 (lane marked Ip Seprase*), MMP-2 from media conditioned by MMP-2 COS cell transfectants (lane marked MMP-2), and proteins associated with β3 integrin were from WI38 RIPA extracts using HB242 (lane marked Ip β3 integrin). All enzymes, including the protease complex, purified seprase, MMP-2, and proteins associated with β1 or β3 integrin were applied at the concentration of 50 ng/ml. […]
# Collagen-degrading activity of isolated DPPIV or seprase-DPPIV complex was determined by the release of peptide fragments from biotinylated type I collagen gel by immuno-isolated proteases or the protease complex. […]
# [2] = target: T2, seprase (Homo sapiens, UniProt Q12884); conditions: cited from earlier work
# T2 sequence (Q12884 1-760): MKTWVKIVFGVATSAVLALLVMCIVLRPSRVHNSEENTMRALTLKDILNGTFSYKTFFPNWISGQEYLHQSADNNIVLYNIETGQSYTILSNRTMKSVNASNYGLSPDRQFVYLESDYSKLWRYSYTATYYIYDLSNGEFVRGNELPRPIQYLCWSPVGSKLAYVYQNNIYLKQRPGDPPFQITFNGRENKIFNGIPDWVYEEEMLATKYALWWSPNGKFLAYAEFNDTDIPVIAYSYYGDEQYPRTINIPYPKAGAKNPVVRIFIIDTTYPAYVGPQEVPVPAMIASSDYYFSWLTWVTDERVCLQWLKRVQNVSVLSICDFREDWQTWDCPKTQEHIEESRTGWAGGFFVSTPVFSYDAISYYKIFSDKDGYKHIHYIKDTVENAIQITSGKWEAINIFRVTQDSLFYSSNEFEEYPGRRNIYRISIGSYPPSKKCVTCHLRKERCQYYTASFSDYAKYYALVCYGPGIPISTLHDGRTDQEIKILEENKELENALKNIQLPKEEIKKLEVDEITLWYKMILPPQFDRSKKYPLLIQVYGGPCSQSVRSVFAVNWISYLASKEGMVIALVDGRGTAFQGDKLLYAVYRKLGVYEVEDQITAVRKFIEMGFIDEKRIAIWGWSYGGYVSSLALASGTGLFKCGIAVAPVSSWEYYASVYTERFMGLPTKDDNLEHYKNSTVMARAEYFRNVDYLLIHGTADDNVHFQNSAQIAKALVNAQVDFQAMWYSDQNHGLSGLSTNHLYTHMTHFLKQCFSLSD
# [3] = target: DPPIV (Homo sapiens, UniProt P27487); conditions: reversible DPPIV inhibitor; cited from earlier work
# Chain of DPPIV (P27487 whole entry, species assumed): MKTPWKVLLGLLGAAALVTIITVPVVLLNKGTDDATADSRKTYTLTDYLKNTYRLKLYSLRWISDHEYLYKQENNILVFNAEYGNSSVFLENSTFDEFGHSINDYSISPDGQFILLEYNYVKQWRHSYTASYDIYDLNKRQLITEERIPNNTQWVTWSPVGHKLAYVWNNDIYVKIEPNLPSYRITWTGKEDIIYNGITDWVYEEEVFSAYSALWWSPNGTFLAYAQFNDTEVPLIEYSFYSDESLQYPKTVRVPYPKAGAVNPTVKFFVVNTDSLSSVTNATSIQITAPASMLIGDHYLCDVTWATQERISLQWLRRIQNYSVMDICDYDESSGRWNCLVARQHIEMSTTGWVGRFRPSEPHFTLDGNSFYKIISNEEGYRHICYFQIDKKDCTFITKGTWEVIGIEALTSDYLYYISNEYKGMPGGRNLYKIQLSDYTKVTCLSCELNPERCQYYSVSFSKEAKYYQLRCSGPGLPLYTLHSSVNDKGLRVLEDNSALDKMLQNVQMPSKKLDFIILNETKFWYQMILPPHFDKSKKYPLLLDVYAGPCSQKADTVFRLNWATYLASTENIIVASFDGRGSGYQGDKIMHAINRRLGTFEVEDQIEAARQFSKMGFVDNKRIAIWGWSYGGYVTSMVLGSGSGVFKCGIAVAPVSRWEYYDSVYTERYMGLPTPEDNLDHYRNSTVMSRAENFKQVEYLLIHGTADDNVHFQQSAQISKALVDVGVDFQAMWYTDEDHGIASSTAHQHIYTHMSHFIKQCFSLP
# T1 sequence (P27487 whole entry, one chain of several): as the sequence (P27487 whole entry, species assumed) above
SMILES,degradation of collagen by the seprase-DPPIV complex [1],seprase gelatinase activity [2],Ki [3],inhibition of seprase activity [2]
NCCc1ccc(S(=O)(=O)F)cc1 [AEBSF],blocked,completely blocked,–,–
N=C(N)c1ccc(CS(=O)(=O)F)cc1 [APSF],–,completely blocked,–,–
NC(CCC(=O)NOC(=O)c1ccccc1)C(=O)N1CCCC1 (stereo not shown) [H-Glu(NHO-Bz)-Pyrr],–,–,500 nM,–
CCN1C(=O)C=CC1=O [NEM],–,–,–,inhibited
O=S(=O)(F)Cc1ccccc1 [PMSF],–,completely blocked,–,inhibits
